Active and inactive are the calls of the source.
Tests used:
[1] = target: T1, Tyrosine-protein phosphatase non-receptor type 22 (Homo sapiens, UniProt Q9Y2R2); experiment: SAR LYP1 Fluorescent Assay using OMFP substrate for In Vitro dose response studies - Set 2. [Related pubchem assays (depositor defined):AID1779, AID1784, AID2140, AID449726, AID488869]; format: functional
T1 sequence (Q9Y2R2 whole entry): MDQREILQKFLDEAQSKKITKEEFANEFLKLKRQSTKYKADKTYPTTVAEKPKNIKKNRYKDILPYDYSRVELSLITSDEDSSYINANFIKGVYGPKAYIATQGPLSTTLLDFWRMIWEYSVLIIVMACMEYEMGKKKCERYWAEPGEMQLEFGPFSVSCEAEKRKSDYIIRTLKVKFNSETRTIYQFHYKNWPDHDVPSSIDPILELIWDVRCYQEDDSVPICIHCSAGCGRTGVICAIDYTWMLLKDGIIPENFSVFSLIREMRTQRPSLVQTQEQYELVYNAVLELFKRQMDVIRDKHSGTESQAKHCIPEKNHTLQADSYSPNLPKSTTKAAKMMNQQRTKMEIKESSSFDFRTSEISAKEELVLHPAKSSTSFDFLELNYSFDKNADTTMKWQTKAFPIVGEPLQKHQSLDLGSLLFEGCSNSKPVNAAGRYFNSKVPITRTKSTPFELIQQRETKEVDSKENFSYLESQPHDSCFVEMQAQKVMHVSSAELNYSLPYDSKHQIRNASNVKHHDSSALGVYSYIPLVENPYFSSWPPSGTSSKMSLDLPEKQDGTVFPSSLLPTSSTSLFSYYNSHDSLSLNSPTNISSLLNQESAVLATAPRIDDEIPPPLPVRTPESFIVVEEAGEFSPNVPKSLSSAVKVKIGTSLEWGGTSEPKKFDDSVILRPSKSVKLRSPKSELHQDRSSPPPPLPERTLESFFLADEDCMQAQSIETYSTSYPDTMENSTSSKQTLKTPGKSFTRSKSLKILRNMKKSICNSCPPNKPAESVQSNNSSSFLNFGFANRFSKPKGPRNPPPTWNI

[2] = target: T1, Tyrosine-protein phosphatase non-receptor type 22; experiment: PubChem AID 2135
[3] = target: T1, Tyrosine-protein phosphatase non-receptor type 22; experiment: PTPN22 lymphoid phosphatase activity blockers – biochemical, fluorescence intensity, uHTS (AID 1779)
[4] = target: T1, Tyrosine-protein phosphatase non-receptor type 22; experiment: LYP1 Fluorescent Assay using OMFP substrate for In Vitro dose response studies. [Related pubchem assays (depositor defined):AID1779, AID1784, AID435024]
[5] = target: T2, Sentrin-specific protease 6 (Homo sapiens, UniProt Q9GZR1); format: functional;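 further: Luminescence-based dose-response confirmatory assay of SENP6 inhibition, following up an ultra-high-throughput screen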
T2 sequence (Q9GZR1 whole entry): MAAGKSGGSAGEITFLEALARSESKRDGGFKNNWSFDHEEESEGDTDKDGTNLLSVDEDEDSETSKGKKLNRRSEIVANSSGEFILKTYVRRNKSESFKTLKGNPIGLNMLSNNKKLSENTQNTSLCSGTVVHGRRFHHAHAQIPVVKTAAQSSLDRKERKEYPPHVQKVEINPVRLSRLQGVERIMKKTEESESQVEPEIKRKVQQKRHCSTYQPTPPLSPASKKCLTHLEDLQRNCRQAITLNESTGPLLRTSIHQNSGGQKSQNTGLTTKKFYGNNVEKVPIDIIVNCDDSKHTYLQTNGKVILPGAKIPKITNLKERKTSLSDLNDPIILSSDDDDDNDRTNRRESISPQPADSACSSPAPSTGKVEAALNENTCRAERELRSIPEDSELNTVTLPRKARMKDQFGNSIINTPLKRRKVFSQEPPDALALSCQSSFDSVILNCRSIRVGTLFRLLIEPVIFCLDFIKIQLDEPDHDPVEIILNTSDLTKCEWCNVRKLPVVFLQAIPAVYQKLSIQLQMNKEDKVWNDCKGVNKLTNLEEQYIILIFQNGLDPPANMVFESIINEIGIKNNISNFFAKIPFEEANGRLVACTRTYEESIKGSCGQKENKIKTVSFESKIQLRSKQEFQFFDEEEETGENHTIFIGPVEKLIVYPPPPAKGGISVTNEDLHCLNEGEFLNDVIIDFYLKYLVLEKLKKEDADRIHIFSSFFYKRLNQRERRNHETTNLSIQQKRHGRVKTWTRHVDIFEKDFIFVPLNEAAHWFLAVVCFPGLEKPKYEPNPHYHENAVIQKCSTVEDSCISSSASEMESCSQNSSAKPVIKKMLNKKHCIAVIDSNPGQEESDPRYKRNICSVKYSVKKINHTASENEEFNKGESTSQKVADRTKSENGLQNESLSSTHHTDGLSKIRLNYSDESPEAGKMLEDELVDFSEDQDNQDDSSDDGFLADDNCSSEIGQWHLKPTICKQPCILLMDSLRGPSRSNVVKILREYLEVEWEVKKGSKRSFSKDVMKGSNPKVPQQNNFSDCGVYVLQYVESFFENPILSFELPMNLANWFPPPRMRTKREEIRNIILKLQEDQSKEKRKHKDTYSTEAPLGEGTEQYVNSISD

[6] = HPDE-C7 pancreatic duct cell viability loss – fluorescence, HTS (AID 430); format: functional, cell-based; conditions: Homo sapiens
[7] = target: T3, Replicative DNA helicase DnaB (Mycobacterium tuberculosis, UniProt P9WMR3); experiment: DnaB intein splicing inhibitors, dose response, biochemical, cell-free fluorescence (AID 449749); format: functional
T3 sequence (P9WMR3 whole entry): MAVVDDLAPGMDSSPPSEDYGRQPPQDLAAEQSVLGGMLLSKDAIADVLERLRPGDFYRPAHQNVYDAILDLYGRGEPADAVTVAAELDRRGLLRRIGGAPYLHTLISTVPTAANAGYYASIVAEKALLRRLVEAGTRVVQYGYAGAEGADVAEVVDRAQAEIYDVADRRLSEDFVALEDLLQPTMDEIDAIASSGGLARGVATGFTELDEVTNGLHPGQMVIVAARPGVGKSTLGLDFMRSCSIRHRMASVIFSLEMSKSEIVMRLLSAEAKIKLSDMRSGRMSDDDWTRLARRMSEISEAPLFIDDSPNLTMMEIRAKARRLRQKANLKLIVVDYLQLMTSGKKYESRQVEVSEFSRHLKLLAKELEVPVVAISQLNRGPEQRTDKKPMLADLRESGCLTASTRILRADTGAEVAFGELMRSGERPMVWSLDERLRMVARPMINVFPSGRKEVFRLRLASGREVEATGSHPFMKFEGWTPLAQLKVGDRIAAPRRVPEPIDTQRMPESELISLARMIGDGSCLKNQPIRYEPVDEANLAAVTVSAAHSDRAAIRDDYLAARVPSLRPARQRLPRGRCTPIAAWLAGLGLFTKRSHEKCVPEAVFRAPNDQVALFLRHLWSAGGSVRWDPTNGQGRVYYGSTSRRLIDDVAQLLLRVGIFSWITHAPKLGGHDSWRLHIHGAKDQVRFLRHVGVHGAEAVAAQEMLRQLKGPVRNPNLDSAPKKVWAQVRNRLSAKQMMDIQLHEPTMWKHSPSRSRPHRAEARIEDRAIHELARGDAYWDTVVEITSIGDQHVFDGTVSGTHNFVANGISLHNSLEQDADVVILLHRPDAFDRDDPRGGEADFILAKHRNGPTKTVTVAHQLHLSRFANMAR

COc1ccc(/C=C2\SC(=S)N(CCC(=O)Nc3ccc(C(=O)O)cc3)C2=O)cc1OC
active: IC50 [1] 1.08 µM | IC50 [2] 2.96 µM | IC50 [3] 4.29 µM | IC50 [4] 4.66 µM

COc1ccc(Nc2ccc3c(c2)=NC2(CCCCC2)[N+]=3[O-])cc1
active: IC50 [5] 6.28 µM | EC50 [6] 6.89 µM | AC50 [7] 9.3 µM

— ChEMBL document CHEMBL1201862, “PubChem BioAssay data set” (2004)
